From ChEMBL document CHEMBL5120859, “Optimization of 4-arylthiophene-3-carboxylic acid derivatives as inhibitors of ANO1: Lead optimization studies toward their analgesic efficacy for inflammatory pain” (Eur J Med Chem, 2022) come the findings set out here.

A short description of data set [1]: AUC (0 to t) in C57BL/6 mouse at 40 mg/kg,iv measured upto 24 hrs by HPLC-MS/MS analysis. In kind it is ADME, organism-based. Also on record: dose 40 mg/kg, time < 24 hrs, route iv. Conditions: in vivo.
The nature of data set [2]: Bioavailability in C57BL/6 mouse at 40 mg/kg,IG measured upto 24 hrs by HPLC-MS/MS analysis. The data set is classed as ADME, organism-based. Conditions: in vivo, po.
Data set [3] can be described thus: Acute toxicity in C57BL/6 mouse assessed as toxic symptoms at 1000 mg/kg,po measured after 24 hrs. In kind it is organism-based. Conditions: in vivo.
Data set [4] can be described thus: AUC (0 to t) in C57BL/6 mouse at 80 mg/kg,IG measured upto 24 hrs by HPLC-MS/MS analysis. In kind it is ADME, organism-based. Also noted: dose 80 mg/kg, time < 24 hrs, route ig. The conditions noted are these: in vivo, po.
The nature of data set [5]: Bioavailability in C57BL/6 mouse at 80 mg/kg,IG measured upto 24 hrs by HPLC-MS/MS analysis. The data set is classed as ADME, organism-based. The conditions noted are these: in vivo, po.
Data set [6] is described as follows: Plasma concentration in C57BL/6 mouse at 40 mg/kg,IG measured after 6 hrs by HPLC analysis. Conditions: po. In kind it is ADME, organism-based.
Data set [7] in a line: MRT (0 to t) in C57BL/6 mouse at 80 mg/kg,IG measured upto 24 hrs by HPLC-MS/MS analysis. The conditions noted are these: in vivo, po. The data set is classed as ADME, organism-based.
Data set [8] relates to Mus musculus. As to the kind of experiment: Analgesic activity in C57BL/6 mouse model of CFA-induced mechanical hyperalgesia assessed as […] at 40 to 80 mg/kg,po measured after 12 hrs by Von Frey test. The data set is classed as functional, organism-based. The conditions noted are these: dose 40-80 mg/kg.
For data set [9], the system named is Mus musculus. Put plainly: Analgesic activity in C57BL/6 mouse model of CFA-induced mechanical hyperalgesia assessed as […] at 40 to 80 mg/kg,po measured after 7 days by Von Frey test. The conditions noted are these: dose 40-80 mg/kg, time 7.0 day. The data set is classed as functional, organism-based.
For data set [10], the target named is Sodium channel protein type 7 subunit alpha (Homo sapiens) (UniProt Q01118). Put plainly: Inhibition of Nav1.7 (unknown origin) in half-inactivated condition at 30 uM by whole cell patch clamp electrophysiology relative to control. On the technique in general: The patch-clamp technique gives a direct electrical read-out from membranes.
The nature of data set [11]: Toxicity in C57BL/6 mouse model of capsaicin-induced allodynia assessed as increase in body temperature at 40 to 80 mg/kg,po. In kind it is organism-based. The conditions noted are these: in vivo, dose 40-80 mg/kg.
Data set [12] is described as follows: Tmax in C57BL/6 mouse at 40 mg/kg,IG measured upto 24 hrs by HPLC-MS/MS analysis. In kind it is ADME, organism-based. Conditions: in vivo, po.
Data set [13] concerns the target Voltage-gated inwardly rectifying potassium channel KCNH2 (Homo sapiens, UniProt Q12809). Put plainly: Cardiotoxicity against human ERG expressed in HEK293 cells by patch clamp assay. The data set is classed as toxicity, cell-based.
Data set [14] can be described thus: Clearance in C57BL/6 mouse at 40 mg/kg,iv measured upto 24 hrs by HPLC-MS/MS analysis. The data set is classed as ADME, organism-based. Conditions: in vivo.
The next data set deals with T1, Anoctamin-1 (Homo sapiens, UniProt Q5XXA6).
T1 sequence (Q5XXA6 whole entry): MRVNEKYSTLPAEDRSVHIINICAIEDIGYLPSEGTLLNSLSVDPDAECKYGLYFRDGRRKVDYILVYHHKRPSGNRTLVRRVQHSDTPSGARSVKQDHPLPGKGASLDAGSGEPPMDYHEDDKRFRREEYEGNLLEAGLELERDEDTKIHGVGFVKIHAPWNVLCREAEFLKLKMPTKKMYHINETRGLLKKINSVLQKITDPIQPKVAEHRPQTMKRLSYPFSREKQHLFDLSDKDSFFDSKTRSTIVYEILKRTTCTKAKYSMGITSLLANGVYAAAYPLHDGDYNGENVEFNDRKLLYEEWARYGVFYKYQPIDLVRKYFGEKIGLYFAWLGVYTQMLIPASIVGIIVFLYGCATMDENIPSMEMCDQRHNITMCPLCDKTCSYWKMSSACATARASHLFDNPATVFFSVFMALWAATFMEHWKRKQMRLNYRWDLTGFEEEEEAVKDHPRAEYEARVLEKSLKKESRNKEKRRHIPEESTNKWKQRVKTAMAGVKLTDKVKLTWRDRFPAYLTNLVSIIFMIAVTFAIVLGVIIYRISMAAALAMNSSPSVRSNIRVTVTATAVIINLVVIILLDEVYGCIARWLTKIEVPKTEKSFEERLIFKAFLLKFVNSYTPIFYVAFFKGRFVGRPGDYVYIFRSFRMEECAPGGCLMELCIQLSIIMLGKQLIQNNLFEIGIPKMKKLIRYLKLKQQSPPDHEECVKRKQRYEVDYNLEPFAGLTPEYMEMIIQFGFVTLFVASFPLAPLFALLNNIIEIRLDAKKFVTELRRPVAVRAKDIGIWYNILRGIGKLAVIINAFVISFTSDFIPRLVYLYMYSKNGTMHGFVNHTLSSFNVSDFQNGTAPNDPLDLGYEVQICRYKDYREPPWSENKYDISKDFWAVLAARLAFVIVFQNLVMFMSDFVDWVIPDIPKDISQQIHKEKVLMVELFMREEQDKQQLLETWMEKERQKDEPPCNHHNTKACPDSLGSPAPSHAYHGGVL
Put plainly: Inhibition of YFP tagged ANO1 (unknown origin) expressed in FRT cells incubated for 24 hrs by fluorescence plate reader assay. In kind it is cell-based.

A short description of data set [15]: Brain concentration in C57BL/6 mouse at 40 mg/kg,IG measured after 6 hrs by HPLC analysis. In kind it is ADME, organism-based. The conditions noted are these: po, read-out: Ct.
Data set [16] is described as follows: Ratio of drug concentration in brain to plasma in C57BL/6 mouse at 40 mg/kg,IG measured after 24 hrs by HPLC analysis. Conditions: po. The data set is classed as ADME, organism-based.
Data set [17] deals with Voltage-gated potassium channel, KQT; KCNQ2(Kv7.2)/KCNQ3(Kv7.3) (Homo sapiens) (UniProt O43526+O43525). Put plainly: Inhibition of KCNQ2/3 (unknown origin) at a holding potential -40 mV at 30 uM by whole cell patch clamp electrophysiology relative to control.
Data set [18] is described as follows: Cytotoxicity against human HEK293 cells assessed as inhibition of cell growth at 30 uM incubated for 72 hrs by CCK-8 assay. The data set is classed as toxicity, cell-based. A general note: Formazan colour is commonly taken as a measure of viable cells.

The source made the active and inactive calls. The rule behind the calls is not given here. A value given as a limit tells only on which side of the number the result lay.

Chain of Voltage-gated inwardly rectifying potassium channel KCNH2 (Q12809 whole entry): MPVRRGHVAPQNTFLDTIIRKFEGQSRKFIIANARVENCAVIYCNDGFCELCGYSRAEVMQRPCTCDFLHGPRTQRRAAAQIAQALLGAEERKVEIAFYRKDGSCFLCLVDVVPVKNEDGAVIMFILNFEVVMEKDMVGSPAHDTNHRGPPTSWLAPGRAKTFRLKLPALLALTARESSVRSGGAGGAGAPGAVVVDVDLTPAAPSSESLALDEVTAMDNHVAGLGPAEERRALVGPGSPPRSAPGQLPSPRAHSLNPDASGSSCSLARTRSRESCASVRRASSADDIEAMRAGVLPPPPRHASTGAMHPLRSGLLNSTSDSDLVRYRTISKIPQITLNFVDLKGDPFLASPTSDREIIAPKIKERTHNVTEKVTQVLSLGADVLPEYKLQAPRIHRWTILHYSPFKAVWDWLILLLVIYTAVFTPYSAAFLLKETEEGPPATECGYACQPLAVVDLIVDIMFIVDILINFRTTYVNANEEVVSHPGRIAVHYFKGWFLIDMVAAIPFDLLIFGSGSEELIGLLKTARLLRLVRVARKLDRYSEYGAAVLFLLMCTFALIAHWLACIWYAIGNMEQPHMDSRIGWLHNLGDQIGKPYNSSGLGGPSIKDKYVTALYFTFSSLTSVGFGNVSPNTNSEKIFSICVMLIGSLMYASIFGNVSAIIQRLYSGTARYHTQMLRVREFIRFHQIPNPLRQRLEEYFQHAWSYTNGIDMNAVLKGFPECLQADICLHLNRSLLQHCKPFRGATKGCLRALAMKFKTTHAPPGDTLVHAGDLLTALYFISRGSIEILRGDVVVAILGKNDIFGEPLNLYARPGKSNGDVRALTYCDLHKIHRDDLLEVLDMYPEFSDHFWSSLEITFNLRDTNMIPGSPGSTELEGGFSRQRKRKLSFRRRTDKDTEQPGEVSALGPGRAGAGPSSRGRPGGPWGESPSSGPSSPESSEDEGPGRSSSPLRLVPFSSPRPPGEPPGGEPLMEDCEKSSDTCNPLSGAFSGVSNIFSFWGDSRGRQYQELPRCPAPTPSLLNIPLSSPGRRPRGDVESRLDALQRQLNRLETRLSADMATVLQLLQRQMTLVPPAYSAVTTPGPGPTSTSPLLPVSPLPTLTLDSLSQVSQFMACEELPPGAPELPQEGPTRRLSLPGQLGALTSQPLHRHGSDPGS
Chain of Sodium channel protein type 7 subunit alpha (Homo sapiens) (Q01118 whole entry): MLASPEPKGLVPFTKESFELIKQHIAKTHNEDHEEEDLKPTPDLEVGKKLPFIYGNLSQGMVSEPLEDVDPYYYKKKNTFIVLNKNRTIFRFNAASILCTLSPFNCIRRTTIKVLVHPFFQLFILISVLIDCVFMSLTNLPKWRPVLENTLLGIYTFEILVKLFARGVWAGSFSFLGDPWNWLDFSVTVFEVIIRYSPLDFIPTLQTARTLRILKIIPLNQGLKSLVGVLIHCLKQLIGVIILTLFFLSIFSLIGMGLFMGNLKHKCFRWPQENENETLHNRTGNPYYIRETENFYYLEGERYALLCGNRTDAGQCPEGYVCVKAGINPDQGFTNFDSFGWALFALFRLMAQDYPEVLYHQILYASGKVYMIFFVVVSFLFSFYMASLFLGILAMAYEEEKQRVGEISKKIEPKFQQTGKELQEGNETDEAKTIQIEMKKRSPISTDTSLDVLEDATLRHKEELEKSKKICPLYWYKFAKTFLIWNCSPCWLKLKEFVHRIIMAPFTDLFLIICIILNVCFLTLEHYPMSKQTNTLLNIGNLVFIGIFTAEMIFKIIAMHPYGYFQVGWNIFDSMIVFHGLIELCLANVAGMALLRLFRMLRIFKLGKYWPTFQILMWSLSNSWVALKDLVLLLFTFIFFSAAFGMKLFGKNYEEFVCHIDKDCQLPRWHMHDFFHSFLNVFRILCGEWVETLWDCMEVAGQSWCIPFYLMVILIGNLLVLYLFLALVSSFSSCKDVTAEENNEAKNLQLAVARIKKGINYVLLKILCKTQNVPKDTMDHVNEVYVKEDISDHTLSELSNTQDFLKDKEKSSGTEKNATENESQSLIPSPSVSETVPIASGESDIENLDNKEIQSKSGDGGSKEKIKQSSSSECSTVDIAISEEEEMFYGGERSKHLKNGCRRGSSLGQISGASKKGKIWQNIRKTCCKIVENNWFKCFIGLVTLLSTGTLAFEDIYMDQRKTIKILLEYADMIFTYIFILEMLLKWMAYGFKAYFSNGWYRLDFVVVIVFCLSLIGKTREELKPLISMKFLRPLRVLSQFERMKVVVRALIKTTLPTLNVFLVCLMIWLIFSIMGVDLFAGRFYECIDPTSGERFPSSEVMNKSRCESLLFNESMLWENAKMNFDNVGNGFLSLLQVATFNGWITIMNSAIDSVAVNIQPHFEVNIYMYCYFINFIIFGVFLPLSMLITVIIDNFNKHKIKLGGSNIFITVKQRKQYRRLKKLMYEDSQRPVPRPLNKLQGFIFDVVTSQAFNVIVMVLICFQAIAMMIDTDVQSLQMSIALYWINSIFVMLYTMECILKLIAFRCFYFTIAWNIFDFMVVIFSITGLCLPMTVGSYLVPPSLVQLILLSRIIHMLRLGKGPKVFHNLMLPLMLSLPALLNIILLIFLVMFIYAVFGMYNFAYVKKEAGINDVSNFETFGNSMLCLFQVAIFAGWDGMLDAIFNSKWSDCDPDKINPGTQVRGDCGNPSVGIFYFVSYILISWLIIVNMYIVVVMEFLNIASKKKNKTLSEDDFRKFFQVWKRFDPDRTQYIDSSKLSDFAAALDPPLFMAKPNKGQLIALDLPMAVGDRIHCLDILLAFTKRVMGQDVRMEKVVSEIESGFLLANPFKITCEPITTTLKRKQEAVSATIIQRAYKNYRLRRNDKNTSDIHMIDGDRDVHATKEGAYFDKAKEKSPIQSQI

With `O=C(Nc1scc(-c2ccc(Cl)cc2)c1C(=O)O)c1cc(F)ccc1F`, the AUC(0-t) (in general, the area under the concentration-time curve up to a stated or last time point) at 24 h was determined as 350 µg·h/mL in data set [1] and 596 µg·h/mL in [4]. For the same compound, the bioavailability (commonly dose-corrected exposure relative to a reference, in per cent) amounted to 75.7% in data set [2] and 85.1% in data set [5]. The Activity entry in [3] and in data set [11] was “Non-Toxic” each time. In addition, the figures for the concentration at 6 h in data set [6] and in [15] were 24300 ng/mL and 337 ng/g, respectively. Also, the MRT last (usually the average time that molecules of a dose stay in the body) at 24 h in data set [7] stood at 7.6 h. In addition, the outcome in the data set with Mus musculus [8] and in the data set with Mus musculus [9] was Active. The inhibition (in general, the drop in the measured response relative to a control, in per cent) in data set [10] was found to be 6.5%; in data set [17] it was 21.4%. Besides, in data set [12], the Tmax – broadly, the time at which the peak concentration occurs – turned out to be 0.25 h. For the same compound, the IC50 (in general, the concentration that inhibits the measured activity by half) in [13] was more than 30000 nM; against Anoctamin-1, 24 nM. For the same compound, in data set [14], the clearance (commonly the volume of plasma or blood freed of the substance per unit of time) was 1.73 mL/min/kg. Also, the Ratio in data set [16] is 4.5%. The inhibition at 72 h, 30 µM in data set [18] is less than 10%.
